For series [1], the system named is A2780 ovarian carcinoma cell line. Briefly: MTT assay, inhibition of cell viability. The series is classed as cell-based. The note with it: for IC50: A2780 ovarian carcinoma cell line, 72 hours of incubation, MTT assay; for cytotoxic activity (in words): A2780, statement drawn from Table 1. As for the experimental part: (§1) The effects of the clusters on the cancer cell growth were evaluated after an exposure period of 72 hours using the MTT [3-(4,5-dimethylthiazol-2-yl)-2,5-diphenyltetrazolium bromide] assay which measures mitochondrial dehydrogenase activity as an indication of cell viability. In addition, the dose-response curves for 1a and 1b against the two cell lines are illustrated in Figures 2a and 2b. Table 1. Inhibition of cell viability (IC50) of complexes on A2780 and A2780cisR ovarian carcinoma cell lines after 72 hours of incubation, determined using MTT assay.
On the technique in general: Tetrazolium assays rely on reduction of a dye to a coloured formazan, in cell work by metabolically active cells.

For series [2], the system named is A2780cisR ovarian carcinoma cell line. Briefly: MTT assay, inhibition of cell viability. The series is classed as cell-based. The note with it: for IC50: cisplatin-resistant A2780cisR ovarian carcinoma cell line, 72 hours of incubation, MTT assay; for cytotoxic activity (in words): A2780cisR, statement drawn from Table 1. As for the experimental part:
as §1

In general, IC50 refers to the midpoint of a concentration-inhibition curve. For the molecule “[(η^6-C6H5Me)4Ru4(µ-H)4][BF4]2 [Compound 2b]”, the concentration for half-maximal inhibition (IC50) in series [1] and in series [2] was greater than 100 µM in each case.

For the molecule “[(η^6-C6H6)(η^6-C6Me6)2Ru3(µ-H)3(µ3-O)][BF4] [Compound 1a]”, in series [1], the “cytotoxic activity (in words)” value was “remarkably active” and inhibition was half-maximal at 9.8 ± 0.2 µM (IC50). Further, in series [2], the “cytotoxic activity (in words)” value was “remarkably active” and the half-maximal inhibitory concentration (IC50) turned out to be 14.6 ± 0.7 µM.

Take `Cc1ccc(C(C)C)cc1.[Cl][Ru]([Cl])[PH]12CN3CN(CN(C3)C1)C2` [RAPTA-C, reference compound]: the IC50 in series [1] and in series [2] was greater than 100 µM throughout.

Regarding “[(η^6-C6H6)(η^6-1,4-^iPrC6H4Me)(η^6-C6Me6)Ru3(µ-H)3(µ3-O)][BF4] [Compound 1b]”, in series [1], the “cytotoxic activity (in words)” value is listed as “remarkably active” and the IC50 amounted to 9.1 ± 0.9 µM. Further, in series [2], the “cytotoxic activity (in words)” value was “remarkably active” and the IC50 stood at 28.9 ± 2.8 µM.

For the molecule “[(η^6-C6H6)4Ru4(µ-H)4][BF4]2 [Compound 2a]”, the IC50 in series [1] and in series [2] was greater than 100 µM each time.

As for “[(η^6-C6H6)4Ru4(µ-H)3(µ-OH)][Cl]2 [Compound 2c]”, the IC50 in series [1] and in series [2] was greater than 100 µM in each case.

For the molecule `N.N.[Cl][Pt][Cl]` [Cisplatin, reference compound], the IC50 was determined as 1.5 ± 0.3 µM in series [1] and 8.7 ± 1.6 µM in series [2]. In addition, the “increase in cisplatin resistance” value in series [2] (A2780cisR versus A2780) is 6 fold.

For the origin of these results see EP2019109A1, “Trimetal-arene clusters with anticancer activity” (Université de Neuchâtel, priority 2007, dated 2009).
